Test system: blood glucose
Test: Postprandial blood glucose pharmacodynamics after meal bolus, 3-day ID vs SC infusion
Assay type: in vivo, human (T1DM patients)
Details: SC; for BGavg0–1 / BGmax0–1 / ΔAUC-BG0–1 / ΔBGmax0–1 / BGavg0–1.5 / BGmax0–1.5 / ΔAUC-BG0–1.5 / ΔBGmax0–1.5 / BGavg0–2 / BGmax0–2 / ΔAUC-BG0–2 / ΔBGmax0–2: mean ± SD; for Intra-subject variability of BGavg / Intra-subject variability of BGmax: across all study days and meals; for BGavg0–2 / BGmax0–2 / ΔAUC-BG0–2 / ΔBGmax0–2: 0–2 h
Source text: This was a single center, open-label, two-period crossover study, randomized by infusion order, in T1DM patients on continuous subcutaneous insulin infusion (CSII). The protocol was approved by an independent ethics committee (Ethikkommission der Ärztekammer Nordrhein, Düsseldorf, Germany), appropriate regulatory bodies (German Federal Institute for Drugs and Medical Devices (BfArM)), and conducted in compliance with good clinical practice (GCP), the Declaration of Helsinki, and applicable regulatory requirements.
The study was completed over a multi-week period consisting of three study visits: a screening visit (V1) and two interventional visits (V2 and V3). After establishing eligibility and enrollment, patients received treatment during two interventional visits: one SC and one ID basal/bolus infusion of insulin aspart (NovoRapid® U-100, Novo Nordisk, Copenhagen, Denmark) administered over 3 days in a randomized order.
Individual meal bolus doses were determined based on patient self-reported insulin to carbohydrate ratios and insulin sensitivity, historical self-reported insulin usage for meal coverage, and clinician review and adjustment of insulin usage during the in-clinic BG stabilization period the evening prior to the first morning meal. Basal insulin infusion rates were initiated based on the patient’s known daily delivery profile and could be adjusted by the clinician to maintain levels within 70–160 mg/dL according to a predetermined sliding scale and hourly changes in glycemia. A continuous glucose monitor (Seven Plus®, DexCom Inc., San Diego, CA) calibrated per manufacturer’s recommendations was applied to continuously monitor glycemia as a safety measure, in addition to periodic blood sampling for BG determination.
After maintaining targeted blood glucose range during the preceding night, bolus insulin doses were administered via the respective infusion catheter prior to standardized breakfast and lunch test meals on each of the three treatment days. Each meal insulin bolus was calculated based on the patient’s insulin sensitivity and previous hours change in BG per sliding scale then delivered immediately prior to breakfast (t = 0 min) and lunch (t = 360 min) consumption. Breakfast was a high glycemic index (60 g carbohydrates) solid meal, and lunch was a mixed meal based on the individual’s calculated daily energy intake and equivalent in caloric composition by day. Breakfast and lunch meals were consumed within 15 min followed by serial blood sampling with BG monitoring for a period of 6 and 4 h, respectively. Patients were asked to remain sedentary for 2 h after meals. Identical study procedures were utilized for the remaining dosing visit days (Fig. 2).
To assess insulin absorption kinetics and glycemic response, blood samples for measurements of insulin aspart and blood glucose in serum were drawn at predefined time points throughout dosing visits. Serial samples for safety BG determination, but not PK analysis, were obtained at a minimum every 2 h. Meal PK/PD analysis samples were acquired immediately pre-bolus and for 4–6 h post-bolus for breakfast and lunch meals, with a higher frequency during the first 2 h to capture insulin and BG peak levels {Post-bolus breakfast time points (min): 0, 10, 15, 20, 25, 30, 35, 40, 45, 50, 55, 60, 65, 70, 80, 90, 120, 150, 180, 210, 240, 300, 330, 360; Post-bolus lunch time points (min): 0, 10, 20, 30, 40, 50, 60, 70, 80, 90, 120, 180, 240, 300}. Sampling times were based on previous clinical study experience for bolus microneedle insulin delivery and had increased sampling frequency in the first 90 min post-delivery to capture the rapid insulin peaks from microneedle ID delivery. Blood samples for evening meal and basal period PK assessment could not be obtained due to daily blood draw volume limits for patient safety. Serum insulin aspart was measured by a third party laboratory (IKFE GmbH, Mainz, Germany) using a validated insulin assay (Invitron ELISA kit). […]

[1] = 0–1 h, Days 1–3 combined, all test meals, n = 150–156
[2] = 0–1.5 h, Days 1–3 combined, all test meals, n = 150–156
[3] = Days 1–3 combined, all test meals, n = 150–156

Q: Which “BG at 1 h” value does the source give for insulin aspart here?
A: 165

Q: And the “BGavg0–1” value (0–1 h, Day 1, across meals)?
A: 138 ± 33.4 mg/dL

Q: What about the “BGmax0–1” value (0–1 h, Day 1, across meals) of the same substance?
A: 166 ± 40.1 mg/dL

Q: What about the “ΔAUC-BG0–1” value (0–1 h, Day 1, across meals) of the same substance?
A: 29.1 ± 25.7 mg·h/dL

Q: What about the “ΔBGmax0–1” value (0–1 h, Day 1, across meals) of the same substance?
A: 57.1 ± 36.0 mg/dL

Q: What about the “BGavg0–1” value (0–1 h, Day 2, across meals) of the same substance?
A: 147 ± 32.5 mg/dL

Q: What about the “BGmax0–1” value (0–1 h, Day 2, across meals) of the same substance?
A: 176 ± 39.2 mg/dL

Q: What about the “ΔAUC-BG0–1” value (0–1 h, Day 2, across meals) of the same substance?
A: 26.7 ± 20.9 mg·h/dL

Q: What about the “ΔBGmax0–1” value (0–1 h, Day 2, across meals) of the same substance?
A: 55.8 ± 31.0 mg/dL

Q: And the “BGavg0–1” value (0–1 h, Day 3, across meals)?
A: 145 ± 30.3 mg/dL

Q: And the “BGmax0–1” value (0–1 h, Day 3, across meals)?
A: 175 ± 37.9 mg/dL

Q: And the “ΔAUC-BG0–1” value (0–1 h, Day 3, across meals)?
A: 26.5 ± 19.5 mg·h/dL

Q: What about the “ΔBGmax0–1” value (0–1 h, Day 3, across meals) of the same substance?
A: 57.2 ± 33.0 mg/dL

Q: What about the “BGavg0–1” value [1] of the same substance?
A: 143 ± 32.2 mg/dL

Q: What about the “BGmax0–1” value [1] of the same substance?
A: 172 ± 39.2 mg/dL

Q: What about the “ΔAUC-BG0–1” value [1] of the same substance?
A: 27.5 ± 22.2 mg·h/dL

Q: What about the “ΔBGmax0–1” value [1] of the same substance?
A: 56.7 ± 33.3 mg/dL

Q: What about the “Intra-subject variability of BGavg” value (0–1 h) of the same substance?
A: 18.2 %CV

Q: And the “Intra-subject variability of BGmax” value (0–1 h)?
A: 18.1 %CV

Q: And the “BGavg0–1.5” value (0–1.5 h, Day 1, across meals)?
A: 144 ± 36.0 mg/dL

Q: And the “BGmax0–1.5” value (0–1.5 h, Day 1, across meals)?
A: 174 ± 43.6 mg/dL

Q: And the “ΔAUC-BG0–1.5” value (0–1.5 h, Day 1, across meals)?
A: 53.4 ± 46.7 mg·h/dL

Q: And the “ΔBGmax0–1.5” value (0–1.5 h, Day 1, across meals)?
A: 65.0 ± 42.3 mg/dL

Q: What about the “BGavg0–1.5” value (0–1.5 h, Day 2, across meals) of the same substance?
A: 154 ± 35.3 mg/dL

Q: And the “BGmax0–1.5” value (0–1.5 h, Day 2, across meals)?
A: 182 ± 41.7 mg/dL

Q: And the “ΔAUC-BG0–1.5” value (0–1.5 h, Day 2, across meals)?
A: 50.8 ± 40.9 mg·h/dL

Q: What about the “ΔBGmax0–1.5” value (0–1.5 h, Day 2, across meals) of the same substance?
A: 61.6 ± 33.2 mg/dL

Q: What about the “BGavg0–1.5” value (0–1.5 h, Day 3, across meals) of the same substance?
A: 152 ± 33.4 mg/dL

Q: What about the “BGmax0–1.5” value (0–1.5 h, Day 3, across meals) of the same substance?
A: 182 ± 40.0 mg/dL

Q: What about the “ΔAUC-BG0–1.5” value (0–1.5 h, Day 3, across meals) of the same substance?
A: 51.3 ± 39.8 mg·h/dL

Q: And the “ΔBGmax0–1.5” value (0–1.5 h, Day 3, across meals)?
A: 63.9 ± 36.8 mg/dL

Q: What about the “BGavg0–1.5” value [2] of the same substance?
A: 150 ± 35.0 mg/dL

Q: And the “BGmax0–1.5” value [2]?
A: 179 ± 41.8 mg/dL

Q: And the “ΔAUC-BG0–1.5” value [2]?
A: 51.9 ± 42.5 mg·h/dL

Q: And the “ΔBGmax0–1.5” value [2]?
A: 63.6 ± 37.6 mg/dL

Q: And the “Intra-subject variability of BGavg” value (0–1.5 h)?
A: 18.2 %CV

Q: What about the “Intra-subject variability of BGmax” value (0–1.5 h) of the same substance?
A: 17.9 %CV

Q: What about the “BGavg0–2” value (Day 1, across meals) of the same substance?
A: 147 ± 39.3 mg/dL

Q: What about the “BGmax0–2” value (Day 1, across meals) of the same substance?
A: 178 ± 49.1 mg/dL

Q: What about the “ΔAUC-BG0–2” value (Day 1, across meals) of the same substance?
A: 77.0 ± 73.2 mg·h/dL

Q: And the “ΔBGmax0–2” value (Day 1, across meals)?
A: 69.7 ± 49.0 mg/dL

Q: And the “BGavg0–2” value (Day 2, across meals)?
A: 157 ± 38.2 mg/dL

Q: And the “BGmax0–2” value (Day 2, across meals)?
A: 186 ± 43.4 mg/dL

Q: And the “ΔAUC-BG0–2” value (Day 2, across meals)?
A: 73.6 ± 63.3 mg·h/dL

Q: And the “ΔBGmax0–2” value (Day 2, across meals)?
A: 65.5 ± 34.7 mg/dL

Q: And the “BGavg0–2” value (Day 3, across meals)?
A: 155 ± 36.1 mg/dL

Q: And the “BGmax0–2” value (Day 3, across meals)?
A: 186 ± 42.4 mg/dL

Q: What about the “ΔAUC-BG0–2” value (Day 3, across meals) of the same substance?
A: 75.1 ± 63.0 mg·h/dL

Q: What about the “ΔBGmax0–2” value (Day 3, across meals) of the same substance?
A: 68.1 ± 40.3 mg/dL

Q: What about the “BGavg0–2” value [3] of the same substance?
A: 153 ± 38.0 mg/dL

Q: What about the “BGmax0–2” value [3] of the same substance?
A: 183 ± 45.1 mg/dL

Q: And the “ΔAUC-BG0–2” value [3]?
A: 75.3 ± 66.5 mg·h/dL

Q: What about the “ΔBGmax0–2” value [3] of the same substance?
A: 67.8 ± 41.8 mg/dL

From article PMC4529466, “Intradermal insulin infusion achieves faster insulin action than subcutaneous infusion for 3-day wear” (Drug Delivery and Translational Research, 2015)
